In article PMC3953502 (ACS chemical biology, 2013):
Blank lines part the entries; values can stand above or below the molecule they belong to.

Assays:
[1] = target: T1, ML-IAP (Homo sapiens, UniProt Q96CA5); assay: Fluorescence polarization competition assay, ML-IAP BIR; type: binding
T1 sequence (Q96CA5 63-179 limits assumed): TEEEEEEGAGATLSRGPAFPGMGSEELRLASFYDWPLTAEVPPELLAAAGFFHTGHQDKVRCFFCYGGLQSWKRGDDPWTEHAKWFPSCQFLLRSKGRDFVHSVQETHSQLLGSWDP

[2] = tested on: Ovarian Cancer Cells; details: 50 ng/mL TRAIL; cited from earlier work
[3] = tested on: MDA-MB-231 breast adenocarcinoma cells; assay: MDA-MB-231 cell viability, sensitization to TRAIL; type: cell-based; details: MDA-MB-231 cells, TRAIL alone at maximum dose of 100 ng/mL

Ki [1]: 41 nM
Molecule: CN[C@@H](C)C(=O)N[C@H](C(=O)N1CCC[C@H]1C(=O)Nc1snnc1-c1ccccc1)C1CCCCC1 [GDC-0152]

Molecule: CN[C@@H](C)C(=O)N[C@H](C(=O)N1CC[C@H]2CCN(CCc3ccccc3)C[C@H]21)C1CCCCC1 [LBW242]
increase in LBW242-induced cell death with addition of TRAIL [2]: 2- to 3 fold

B1: TRAIL: Tumor necrosis factor-related apoptosis-inducing ligand, member of the TNF family of cytokines (protein, UniProt P50591 1-281, looked up)
Tumor necrosis factor ligand …: MAMMEVQGGPSLGQTCVLIVIFTVLLQSLCVAVTYVYFTNELKQMQDKYSKSGIACFLKEDDSYWDPNDEESMNSPCWQVKWQLRQLVRKMILRTSEETISTVQEKQQNISPLVRERGPQRVAAHITGTRGRSNTLSSPNSKNEKALGRKINSWESSRSGHSFLSNLHLRNGELVIHEKGFYYIYSQTYFRFQEEIKENTKNDKQMVQYIYKYTSYPDPILLMKSARNSCWSKDAEYGLYSIYQGGIFELKENDRIFVSVTNEHLIDMDHEASFFGAFLVG
cells undergone cell death [3]: 30%
